In patent US20230357239A1, “PYRIDO[2,3-D]PYRIMIDIN-4-AMINES AS SOS1 INHIBITORS” (Bayer Aktiengesellschaft, priority 2020, published 2023):

target: human SOS1 (SOS1) with human K-RasG12C (Homo sapiens (Human), UniProt Q07889); assay: hK-RasG12C interaction assay with hSOS1 (HTRF); assay type: binding; details: GST-hK-RasG12C and His-hSOS1, 60 min incubation at 20° C, mean, read-out: K-RasG12C - SOS interaction assay IC50 - [mol/l] (mean)
Protocol: Biochemical Assay: hK-RasG12C Interaction Assay with hSOS1
This assay quantifies the equilibrium interaction of human SOS1 (SOS1) with human K-Ras^G12C (K-RasG12C). Detection of the interaction is achieved by measuring homogenous time-resolved fluorescence resonance energy transfer (HTRF) from antiGST-Europium (FRET donor) bound to GST-K-RasG12C to anti-6His-XL665 bound to His-tagged hSOS1 (FRET-acceptor).
The assay buffer containes 5 mM HEPES pH 7.4 (Applichem), 150 mM NaCl (Sigma), 10 mM EDTA (Promega), 1 mM DTT (Thermofisher), 0.05% BSA Fraction V, pH 7.0, (ICN Biomedicals), 0.0025% (v/v) Igepal (Sigma) and 100 mM KF (FLUKA).
Concentrations of protein batches used are optimized to be within the linear range of the HTRF signal. A Ras working solution is prepared in assay buffer containing typically 10 nM GST-hK-RasG12C and 2 nM antiGST-Eu(K) (Cisbio, France). A SOS1 working solution is prepared in assay buffer containing typically 20 nM His-hSOS1 and 10 nM anti-6His-XL665 (Cisbio, France). An inhibitor control solution is prepared in assay buffer containing 10 nM anti-6His-XL665 without SOS1.
Fifty nl of a 100-fold concentrated solution of the test compound in DMSO are transferred into a black microtiter test plate (384 or 1536, Greiner Bio-One, Germany).
For this, either a Hummingbird liquid handler (Digilab, MA, USA) or an Echo acoustic system (Labcyte, CA, USA) is used.
All steps of the assay are performed at 20° C. A volume of 2.5 μl of the Ras working solution is added to all wells of the test plate using a Multidrop dispenser (Thermo Labsystems). After 2 min preincubation, 2.5 μl of the SOS1 working solution are added to all wells except for those wells at the side of the test plate that are subsequently filled with 2.5 μl of the inhibitor control solution. After 60 min incubation the fluorescence is measured with a Pherastar (BMG, Germany) using the HTRF module (excitation 337 nm, emission 1: 620 nm, emission 2: 665 nm).
The ratiometric data (emission 2 divided by emission 1) are normalized using the controls (DMSO=0% inhibition, inhibition control wells with inhibitor control solution=100% inhibition). […] IC50 values are calculated by 4-Parameter fitting using a commercial software package (Genedata Screener, Switzerland).

Sequence of human SOS1 (SOS1) with human K-RasG12C (Q07889 564-1049): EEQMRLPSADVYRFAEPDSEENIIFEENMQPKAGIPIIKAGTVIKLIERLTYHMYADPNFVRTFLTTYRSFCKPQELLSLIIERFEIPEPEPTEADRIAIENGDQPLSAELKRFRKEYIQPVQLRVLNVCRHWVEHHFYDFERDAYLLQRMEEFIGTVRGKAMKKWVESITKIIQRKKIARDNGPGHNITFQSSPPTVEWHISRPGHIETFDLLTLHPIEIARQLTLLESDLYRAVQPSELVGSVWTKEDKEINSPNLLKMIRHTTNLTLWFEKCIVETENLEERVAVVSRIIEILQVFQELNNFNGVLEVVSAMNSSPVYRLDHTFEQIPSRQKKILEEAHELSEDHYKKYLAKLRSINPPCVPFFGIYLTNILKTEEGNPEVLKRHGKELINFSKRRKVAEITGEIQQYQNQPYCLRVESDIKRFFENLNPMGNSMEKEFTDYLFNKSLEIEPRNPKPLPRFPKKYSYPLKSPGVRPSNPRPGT

Row | SMILES | IC50 [nM]
1 | Cc1nc(N[C@H](C)c2cccc(C(F)(F)F)c2C)c2cc(N3CCN(C)CC3)cnc2n1 [Example 15, 2-methyl-6-(4-methylpiperazin-1-yl)—N-{(1R)-1-[2-methyl-3-(trifluoromethyl)phenyl]ethyl}pyrido[2,3-d]pyrimidin-4-amine] | 10.6
2 | CC(=O)N1CCC(c2cnc3nc(C)nc(N[C@H](C)c4cccc(C(F)(F)F)c4C)c3c2)C1 (mixture of isomers) [Example 31, 1-{(3RS)-3-[2-methyl-4-({(1R)-1-[2-methyl-3-(trifluoromethyl)phenyl]ethyl}amino)pyrido[2,3-d]pyrimidin-6-yl]pyrrolidin-1-yl}ethan-1-one] | 11.9
3 | CC(=O)N1CC2(C1)CN(c1cnc3nc(C)nc(N[C@H](C)c4cccc(C(F)(F)C(C)(C)O)c4F)c3c1)C2 [Example 54, 1-{6-[4-({(1R)-1-[3-(1,1-difluoro-2-hydroxy-2-methylpropyl)-2-fluorophenyl]ethyl}amino)-2-methylpyrido[2,3-d]pyrimidin-6-yl]-2,6-diazaspiro[3.3]heptan-2-yl}ethan-1-one] | 3.52
4 | CC(=O)N1CC2(C1)CN(c1cc3c(N[C@H](C)c4cccc(C(F)F)c4F)nc(C)nc3nc1C(F)(F)F)C2 [Example 69, 1-{6-[4-({(1R)-1-[3-(difluoromethyl)-2-fluorophenyl]ethyl}amino)-2-methyl-7-(trifluoromethyl)pyrido[2,3-d]pyrimidin-6-yl]-2,6-diazaspiro[3.3]heptan-2-yl}ethan-1-one] | 29.5
5 | Cc1nc(N[C@H](C)c2cccc(C(F)(F)F)c2C)c2cc(N3CCCS3(=O)=O)cnc2n1 [Example 34, 2-[2-methyl-4-({(1R)-1-[2-methyl-3-(trifluoromethyl)phenyl]ethyl}amino)pyrido[2,3-d]pyrimidin-6-yl]-1 lambda^6,2-thiazolidine-1,1-dione] | 13
6 | CC(=O)N1CCN(S(=O)(=O)c2cnc3nc(C)nc(N[C@H](C)c4cccc(C(F)(F)F)c4C)c3c2)CC1 [Example 17, 1-{4-[2-methyl-4-({(1R)-1-[2-methyl-3-(trifluoromethyl)phenyl]ethyl}amino)pyrido[2,3-d]pyrimidine-6-sulfonyl]piperazin-1-yl}ethan-1-one] | 3.56
7 | CC(=O)N1CCN(c2cnc3ncnc(N[C@H](C)c4cccc(C(F)(F)F)c4C)c3c2)CC1 [Example 10, 1-{4-[4-({(1R)-1-[2-methyl-3-(trifluoromethyl)phenyl]ethyl}amino)pyrido[2,3-d]pyrimidin-6-yl]piperazin-1-yl}ethan-1-one] | 3.55
8 | CC(=O)N1CCN(c2cnc3nc(C)nc(N[C@H](C)c4cccc(C(F)(F)F)c4C)c3c2)CC1 [Example 35, 1-{4-[2-methyl-4-({(1R)-1-[2-methyl-3-(trifluoromethyl)phenyl]ethyl}amino)pyrido[2,3-d]pyrimidin-6-yl]piperazin-1-yl}ethan-1-one] | 7.71
9 | CC(=O)N1CC2(C1)CN(c1cnc3nc(C)nc(N[C@H](C)c4cccc(C(F)(F)F)c4C)c3c1)C2 [Example 8, 1-{6-[2-methyl-4-({(1R)-1-[2-methyl-3-(trifluoromethyl)phenyl]ethyl}amino)pyrido[2,3-d]pyrimidin-6-yl]-2,6-diazaspiro[3.3]heptan-2-yl}ethan-1-one] | 15.7
10 | CC(=O)N1CCN(c2cnc3ncnc(N[C@H](C)c4cccc(C(F)(F)F)c4)c3c2)CC1 [Example 4, 1-{4-[4-({(1R)-1-[3-(trifluoromethyl)phenyl]ethyl}amino)pyrido[2,3-d]pyrimidin-6-yl]piperazin-1-yl}ethan-1-one] | 16.3
11 | COc1nc2nc(C)nc(N[C@H](C)c3cccc(C(F)(F)F)c3C)c2cc1N1CC2(CN(C(C)=O)C2)C1 [Example 20, 1-{6-[7-methoxy-2-methyl-4-({(1R)-1-[2-methyl-3-(trifluoromethyl)phenyl]ethyl}amino)pyrido[2,3-d]pyrimidin-6-yl]-2,6-diazaspiro[3.3]heptan-2-yl}ethan-1-one] | 348
12 | CC(=O)N1CCC(c2cc3c(N[C@H](C)c4cccc(C(F)(F)C(C)(C)O)c4F)nc(C)nc3nc2C)CC1 [Example 66, 1-{4-[4-({(1R)-1-[3-(1,1-difluoro-2-hydroxy-2-methylpropyl)-2-fluorophenyl]ethyl}amino)-2,7-dimethylpyrido[2,3-d]pyrimidin-6-yl]piperidin-1-yl}ethan-1-one] | 3.18
13 | CC(=O)N1CC2(C1)CN(c1cc3c(N[C@H](C)c4cccc(C(F)(F)F)c4C)nc(C)nc3nc1C)C2 [Example 63, 1-{6-[2,7-dimethyl-4-({(1R)-1-[2-methyl-3-(trifluoromethyl)phenyl]ethyl}amino)pyrido[2,3-d]pyrimidin-6-yl]-2,6-diazaspiro[3.3]heptan-2-yl}ethan-1-one] | 8.66
14 | CC(=O)N1C[C@@H]2C[C@H]1CN2c1cc2c(N[C@H](C)c3cccc(C(F)(F)C(C)(C)O)c3F)nc(C)nc2nc1C [Example 64, 1-{(1 S,4S)-5-[4-({(1R)-1-[3-(1,1-difluoro-2-hydroxy-2-methylpropyl)-2-fluorophenyl]ethyl}amino)-2,7-dimethylpyrido[2,3-d]pyrimidin-6-yl]-2,5-diazabicyclo[2.2.1]heptan-2-yl}ethan-1-one] | 4.35
15 | CC(=O)N[C@@H]1CCN(c2cnc3nc(C)nc(N[C@H](C)c4cccc(C(F)(F)C(C)(C)O)c4F)c3c2)C1 [Example 55, N-{(3R)-1-[4-({(1R)-1-[3-(1,1-difluoro-2-hydroxy-2-methylpropyl)-2-fluorophenyl]ethyl}amino)-2-methylpyrido[2,3-d]pyrimidin-6-yl]pyrrolidin-3-yl}acetamide] | 4.46
16 | CC(=O)N1CC2(C1)CN(c1cnc3nc(C)nc(N[C@H](C)c4cccc(C(F)F)c4F)c3c1)C2 [Example 29, 1-{6-[4-({(1R)-1-[3-(difluoromethyl)-2-fluorophenyl]ethyl}amino)-2-methylpyrido[2,3-d]pyrimidin-6-yl]-2,6-diazaspiro[3.3]heptan-2-yl}ethan-1-one] | 25.6
17 | CC(=O)N1CCC(c2cc3c(N[C@H](C)c4cccc(C(F)(F)F)c4C)nc(C)nc3nc2C(F)(F)F)CC1 [Example 42, 1-{4-[2-methyl-4-({(1R)-1-[2-methyl-3-(trifluoromethyl)phenyl]ethyl}amino)-7-(trifluoromethyl)pyrido[2,3-d]pyrimidin-6-yl]piperidin-1-yl}ethan-1-one] | 28.9
18 | CC(=O)N1CCN(c2cnc3nc(C)nc(N[C@H](C)c4cccc(C(F)(F)F)c4C)c3c2)C(=O)C1 [Example 61, 4-acetyl-1-[2-methyl-4-({(1R)-1-[2-methyl-3-(trifluoromethyl)phenyl]ethyl}amino)pyrido[2,3-d]pyrimidin-6-yl]piperazin-2-one] | 2.53
19 | COc1nc2nc(C)nc(N[C@H](C)c3cccc(C(F)(F)F)c3C)c2cc1C1=CCN(C(C)=O)CC1 [Example 21, 1-{4-[7-methoxy-2-methyl-4-({(1R)-1-[2-methyl-3-(trifluoromethyl)phenyl]ethyl}amino)pyrido[2,3-d]pyrimidin-6-yl]-3,6-dihydropyridin-1(2H)-yl}ethan-1-one] | 949
20 | CC(=O)N1CC2(CCC(c3cnc4nc(C)nc(N[C@H](C)c5cccc(C(F)(F)F)c5C)c4c3)CC2)C1 [Example 28, 1-{7-[2-methyl-4-({(1R)-1-[2-methyl-3-(trifluoromethyl)phenyl]ethyl}amino)pyrido[2,3-d]pyrimidin-6-yl]-2-azaspiro[3.5]nonan-2-yl}ethan-1-one] | 9.4
21 | CC(=O)N1C2CC1CN(c1cnc3nc(C)nc(N[C@H](C)c4cccc(C(F)(F)C(C)(C)O)c4F)c3c1)C2 [Example 49, 1-{3-[4-({(1R)-1-[3-(1,1-difluoro-2-hydroxy-2-methylpropyl)-2-fluorophenyl]ethyl}amino)-2-methylpyrido[2,3-d]pyrimidin-6-yl]-3,6-diazabicyclo[3.1.1]heptan-6-yl}ethan-1-one] | 3.31
22 | CC(=O)N1CC=C(c2cnc3nc(C)nc(N[C@H](C)c4cccc(C(F)(F)F)c4C)c3c2)CC1 [Example 25, 1-{4-[2-methyl-4-({(1R)-1-[2-methyl-3-(trifluoromethyl)phenyl]ethyl}amino)pyrido[2,3-d]pyrimidin-6-yl]-3,6-dihydropyridin-1(2H)-yl}ethan-1-one] | 5.78
23 | CC(=O)N1CC2(C1)CN(c1cc3c(N[C@H](C)c4cccc(C(F)F)c4F)nc(C)nc3nc1C)C2 [Example 37, 1-{6-[4-({(1R)-1-[3-(difluoromethyl)-2-fluorophenyl]ethyl}amino)-2,7-dimethylpyrido[2,3-d]pyrimidin-6-yl]-2,6-diazaspiro[3.3]heptan-2-yl}ethan-1-one] | 8.47
